Test results reported in patent US8685974B2 (Bayer CropScience AG, priority 2009, dated 2014).
“And” between values parts separate entries of the source, which are not always exact repeats. Equal values may be shown once. Read-outs that look alike come from different tables or passages of the source. Marks after values point to notes of the source that are not given here.

Tests used:
[1] = test system: Alternaria solani; assay: Alternaria test (tomato) / protective; assay type: in vivo; settings: 500 ppm active compound, protective spray, evaluated 7 days after inoculation
Summary of the method: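 Young tomato plants sprayed protectively with compound formulated in DMF with alkylaryl polyglycol ether emulsifier and diluted in water to the application rate. After inoculation, plants held at 96% rel. humidity and 20° C. Efficacy scored 7 days post-inoculation: 0% equals untreated control, 100% no infection.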

[2] = test system: Fusarium graminearum; assay type: cell-based
[3] = test system: Pyrenophora teres; assay: In vivo test on Pyrenophora teres (barley net blotch); settings: dose of 500 ppm; barley plants; grading 12 days after contamination
Method: In Vivo Test on Pyrenophora teres (Barley Net Blotch)
The active ingredients tested are prepared by homogenization in a mixture of acetone/Tween/DMSO, then diluted with water to obtain the desired active material concentration.
Barley plants (Plaisant variety), sown on a 50/50 peat soil-pozzolana substrate in starter cups and grown at 12° C., are treated at the 1-leaf stage (10 cm tall) by spraying with the active ingredient prepared as described above.
Plants, used as controls, are treated with an aqueous solution not containing the active material.
After 24 hours, the plants are contaminated by spraying them with an aqueous suspension of Pyrenophora teres spores (12,000 spores per ml). The spores are collected from a 12-day-old culture. The contaminated barley plants are incubated for 24 hours at about 20° C. and at 100% relative humidity, and then for 12 days at 80% relative humidity.
Grading is carried out 12 days after the contamination, in comparison with the control plants.

[4] = test system: Leptosphaeria nodorum; assay: Leptosphaeria nodorum test (wheat) / protective; assay type: in vivo; settings: 500 ppm active compound, protective spray, evaluated 7-9 days after inoculation
Method: Leptosphaeria nodorum Test (Wheat)/Protective
Solvent: 49 parts by weight of N,N-dimethylformamide
Emulsifier: 1 part by weight of alkylaryl polyglycol ether
To produce a suitable preparation of active compound, 1 part by weight of active compound is mixed with the stated amounts of solvent and emulsifier, and the concentrate is diluted with water to the desired concentration.
To test for protective activity, young wheat plants are sprayed with the preparation of active compound at the stated application rate. […] The plants are then placed in a greenhouse at 90% rel. atmospheric humidity and a temperature of 22° C.
Evaluation is carried out 7-9 days after the inoculation. 0% means an efficacy which corresponds to that of the control, whereas an efficacy of 100% means that no infection is observed.

[5] = physchem; settings: pH 2.7

Structure (SMILES)	efficacy [1]	log p (pH 2.7)	protection [3]	efficacy [4]	also measured
Cn1cc(-c2ccnc(NC(=O)C3CC3)c2)c(-c2ccc(Cl)s2)n1 [Example 279]	80%	2.16^[b]	95%	70%	% Inhibition of fungal growth at 50 μM ([2]; 50 μM): 100%; % Inhibition of DON/AcDON at 50 μM ([2]; 50 μM, 7 days at 28° C.): 98%
CCC(CC)n1cc(-c2ccncc2)c(-c2ccc(Br)s2)n1 [Example 392]	100%	2.39^[b]		70%	% Inhibition of fungal growth at 50 μM ([2]; 50 μM): 97%; % Inhibition of DON/AcDON at 50 μM ([2]; 50 μM, 7 days at 28° C.): 99%; logP value of the minor isomer (pH 2.7): (2.22)
CC1(Cn2cc(-c3ccncc3)c(-c3ccc(Br)s3)n2)CC1(Cl)Cl (centres unmarked) [Example 386]	89%	2.75^[b]		80%	% Inhibition of fungal growth at 50 μM ([2]; 50 μM): 0%; % Inhibition of DON/AcDON at 50 μM ([2]; 50 μM, 7 days at 28° C.): 99%; logP value of the minor isomer (pH 2.7): (2.50)
CC(=O)Nc1cc(-c2cn(C(C)C)nc2-c2ccc(Cl)s2)ccn1 [Example 256]	100%	2.45^[b]	100%	80%	% Inhibition of fungal growth at 50 μM ([2]; 50 μM): 100%; % Inhibition of DON/AcDON at 50 μM ([2]; 50 μM, 7 days at 28° C.): 99%
CCC(=O)Nc1cc(-c2c(-c3ccc(Cl)s3)nn(C(C)C)c2C)ccn1 [Example 168]	90%	3.34^[b]	90%	90%	log p (pH 7.8): 3.76^[c];
CC(C)Cn1cc(-c2ccncc2)c(-c2cccs2)n1 [Example 407]	90%	1.5^[b]	90%	94%	% Inhibition of fungal growth at 50 μM ([2]; 50 μM): 99%; % Inhibition of DON/AcDON at 50 μM ([2]; 50 μM, 7 days at 28° C.): 100%
CC(C)n1cc(-c2ccncc2)c(-c2ccc(Br)s2)n1 [Example 387]	100%	1.88^[b]	80%	90%	% Inhibition of fungal growth at 50 μM ([2]; 50 μM): 93%; % Inhibition of DON/AcDON at 50 μM ([2]; 50 μM, 7 days at 28° C.): 99%
CCn1cc(-c2ccnc(NC(=O)C3CCC3)c2)c(-c2ccc(Cl)s2)n1 [Example 269]		2.92^[b]	80%	70%	% Inhibition of fungal growth at 50 μM ([2]; 50 μM): 58%; % Inhibition of DON/AcDON at 50 μM ([2]; 50 μM, 7 days at 28° C.): 87%
CC(=O)N(C(C)=O)c1cc(-c2cn(C(C)C)nc2-c2ccc(Cl)s2)ccn1 [Example 304]	95%	3.33^[b]	95%	80%	% Inhibition of DON/AcDON at 50 μM [2]: 100%; % Inhibition of fungal growth at 50 μM ([2]; 50 μM): 87% and 90%
CC(C)Cn1cc(-c2ccnc(N)n2)c(-c2ccc(Cl)s2)n1 [Example 95]	70%			80%	log p (pH 2.3): 2.35^[a]
CC(=O)N(C(C)=O)c1nccc(-c2cn(C(C)C)nc2-c2ccc(Cl)s2)n1 [Example 171]			95%	89%	log p (pH 2.3): 3.33^[a]
CC(C)n1cc(-c2ccnc(NC(=O)C3CCC3)c2)c(-c2ccc(Cl)s2)n1 [Example 243]	90%	3.37^[b]	95%	90%	% Inhibition of fungal growth at 50 μM ([2]; 50 μM): 31%; % Inhibition of DON/AcDON at 50 μM ([2]; 50 μM, 7 days at 28° C.): 99%
CCC(C)C(=O)Nc1cc(-c2cn(C)nc2-c2ccc(Cl)s2)ccn1 (centres unmarked) [Example 280]	90%	2.71^[b]	90%	80%	
Cc1c(-c2ccncc2)c(-c2ccc(Cl)s2)nn1C(C)C [Example 145]	100%	2.07^[b]	100%	95%	log p (pH 7.8): 3.8^[c];
CC(C)n1cc(-c2ccnc(NC(=O)N(C)C)c2)c(-c2ccc(Cl)s2)n1 [Example 248]	90%	1.97^[b]	100%	90%	
FCCn1cc(-c2ccncc2)c(-c2ccc(Br)s2)n1 [Example 388]	100%	1.49^[b]		80%	% Inhibition of fungal growth at 50 μM ([2]; 50 μM): 100%; % Inhibition of DON/AcDON at 50 μM ([2]; 50 μM, 7 days at 28° C.): 99%; logP value of the minor isomer (pH 2.7): (1.34)
CCC(C)n1cc(-c2ccnc(Cl)c2)c(-c2ccc(Cl)s2)n1 (centres unmarked) [Example 318]		4.89^[b]		70%	
CCC(=O)Nc1cc(-c2c(-c3ccc(Cl)s3)nn(C)c2C)ccn1 [Example 170]	90%	2.32^[b]	80%	90%	log p (pH 7.8): 2.68^[c];
CC(C)Nc1nccc(-c2cn(C(C)C)nc2-c2ccc(Cl)s2)n1 [Example 181]			80%	70%	log p (pH 2.3): 2.82^[a]
FC(F)Cn1cc(-c2ccncc2)c(-c2ccc(Br)s2)n1 [Example 384]	94%	1.67^[b]		90%	% Inhibition of fungal growth at 50 μM ([2]; 50 μM): 100%; % Inhibition of DON/AcDON at 50 μM ([2]; 50 μM, 7 days at 28° C.): 99%; logP value of the minor isomer (pH 2.7): (1.51)

Structure (SMILES)	efficacy [1]	log p (pH 2.7)	protection [3]	efficacy [4]	also measured
CCC(=O)Nc1cc(-c2c(-c3ccc(Cl)s3)nn(CC)c2C)ccn1 [Example 169]	95%	2.71^[b]	95%	80%	log p (pH 7.8): 3.1^[c];
CC(C)n1cc(-c2ccnc(NC3COC3)n2)c(-c2ccc(Cl)s2)n1 [Example 179]	80%		90%	80%	log p (pH 2.3): 2.7^[a]
CCC(=O)Nc1nccc(-c2cn(C(C)CC)nc2-c2ccc(Cl)s2)n1 (centres unmarked) [Example 190]	80%		95%	70%	log p (pH 2.3): 3.37^[a]
Cn1cc(-c2ccnc(NC(=O)Cc3ccccc3)c2)c(-c2ccc(Cl)s2)n1 [Example 277]	90%	3.06^[b]	90%	70%	
CC(=O)Nc1cc(-c2cn(CC(C)C)nc2-c2ccc(Cl)s2)cc[n+]1[O-] [Example 80]	94%			70%	log p (pH 2.3): 2.86^[a]
COc1ccc(Cn2cc(-c3ccncc3)c(-c3ccc(Cl)s3)n2)cc1 [Example 104]		2.74^[b]		80%	
CCn1nc(-c2ccc(Cl)s2)c(-c2ccncc2)c1C [Example 146]	95%	1.61^[b]	100%	95%	log p (pH 7.8): 3.08^[c];
CCCc1cc(-c2cccs2)nn1C [1-Methyl-5-propyl-3-(2-thienyl)-1H-pyrazole]					log p [5]: 2.9
CCC(C)n1cc(-c2ccnc(NC(=O)C(C)C)n2)c(-c2ccc(Cl)s2)n1 (centres unmarked) [Example 173]			95%	89%	log p (pH 2.3): 3.72^[a]
CCCc1nn(C)c(-c2sccc2C)c1I [4-Iodo-1-methyl-5-(3-methyl-2-thienyl)-3-propyl-1H-pyrazole]					log p [5]: 4.27
CC(C)Cn1cc(-c2ccncc2)c(-c2ccc(Br)s2)n1 [4-[1-isobutyl-3-(5-bromo-2-thienyl)-1H-pyrazol-4-yl]pyridine]					log p [5]: 2.04
CC(C)n1nc(-c2ccc(Cl)s2)c(-c2ccncc2)c1C1CC1 [4-[5-Cyclopropyl-1-isopropyl-3-(5-chloro-2-thienyl)-1H-pyrazol-4-yl]pyridine]					log p [5]: 2.44
CC(C)Nc1nccc(CC(=O)c2ccc(Cl)s2)n1					log p [5]: 2.37
Fc1ccc(-c2n[nH]cc2-c2ccncc2)s1 [4-[3-(5-Fluoro-2-thienyl)-1H-pyrazol-4-yl]pyridine]					log p [5]: 0.57
CCC(=O)Nc1cc(-c2cn(C(C)C)nc2-c2cccs2)ccn1 [Example 175]	80%	2.01^[b]	90%	70%	log p (pH 7.8): 2.61^[c];
CCC(=O)Nc1nccc(-c2cn(C(C)C)nc2-c2ccc(Cl)s2)n1 [Example 172]			100%	89%	log p (pH 2.3): 3.04^[a]
C#CCNc1nccc(-c2cn(C(C)C)nc2-c2ccc(Cl)s2)n1 [Example 180]			80%	70%	log p (pH 2.3): 3.25^[a]
CCCn1nccc1-c1cc(C)cs1 [5-(4-Methyl-2-thienyl)-1-propyl-1H-pyrazole]					log p [5]: 3.1
CCn1ncc(I)c1-c1cc(Cl)cs1 [5-(4-Chloro-2-thienyl)-1-ethyl-4-iodo-1H-pyrazole]					log p [5]: 3.76
CCn1cc(I)c(-c2cc(Cl)cs2)n1 [3-(4-Chloro-2-thienyl)-1-ethyl-4-iodo-1H-pyrazole]					log p [5]: 4.02
